The text below walks through data of patent US20070059359A1, “Immediate-release and high-drug-load pharmaceutical formulations of non-micronised (4-chlorophenyl)[4-(4-pyridylmethyl)phthalazin-1-yl] and salts thereof” (priority 2005, published 2007).

In one data set the test system is VEGFR kinases. The note with it: not dependent on a specific ligand; cited from earlier work.
Data set [1] is described as follows: Hazard classification, internal workspace limit. As to conditions: classified as being hazardous.

As to `Clc1ccc(Nc2nnc(Cc3ccncc3)c3ccccc23)cc1` [(4-chlorophenyl)[4-(4-pyridylmethyl)-phthalazin-1-yl]], the “inhibition of VEGFR kinases” value in the data set on VEGFR kinases was “inhibitor of all three VEGFR kinases”.

With `Clc1ccc(Nc2nnc(Cc3ccncc3)c3ccccc23)cc1` [pynasunate, (4-chlorophenyl)[4-(4-pyridylmethyl)-phthalazin-1-yl]ammonium hydrogen succinate], the internal workspace limit in data set [1] stood at 0.1 mg/m^3.
